Measurements as given in patent US20100305095A1, “Use of HPPD Inhibitors in the Treatment of Depression and/or Withdrawal Symptoms Associated with Addictive Drugs” (priority 2006, published 2010).

What was measured:
Format in all cases: in vivo
[1] = test system: plasma tyrosine, dopamine levels and dopamine turnover; test: Plasma tyrosine, dopamine levels and dopamine turnover in orally dosed mice; settings: 0.1 mg/Kg oral; for plasma tyrosine levels: vs vehicle control
Method: Illustration of increase in levels and turnover of dopamine as a mechanism for treatment/prevention of depression and treatment of the withdrawal symptoms associated with withdrawal from an addictive drug such as cocaine. 10 mice were dosed orally with 0.1 mg/Kg of 2-(2-Nitro-4-Trifluoromethylbenzoyl)-1,3-Cyclohexanedione. As a control, 10 mice were orally dosed with the dosing vehicle. After 24 hours, plasma tyrosine levels were identified. Dopamine levels and dopamine turnover were also analysed. 10 mice were dosed orally with 0.1 mg/Kg of 2-(2-Nitro-4-Trifluoromethylbenzoyl)-1,3-Cyclohexanedione. As a control, 9 mice were orally dosed with the dosing vehicle. After 6 hours, plasma tyrosine levels were identified. Dopamine levels and dopamine turnover were also analysed.

[2] = test system: plasma tyrosine, dopamine turnover and noradrenaline levels; test: Plasma tyrosine, dopamine turnover and noradrenaline levels in orally dosed rats; settings: 2 mg/Kg oral, after 24 hours
Method: 10 rats were dosed orally with 2 mg/Kg of 2-(2-Nitro-4-Trifluoromethylbenzoyl)-1,3-Cyclohexanedione. As a control, 10 rats were orally dosed with the dosing vehicle. After 24 hours, plasma tyrosine levels were identified. Dopamine levels and dopamine turnover and noradrenaline levels were also analysed.

rats = test: Activity cage with automatic infrared activity monitoring (rearing, activity, mobility) in rats; settings: 2 mg/Kg oral, after 4 hours, one hour in activity cage
Method: Analysis of stimulatory effect of HPPD inhibitors as a mechanism for the treatment of withdrawal symptoms associated with an addictive drug such as nicotine. 12 rats were dosed orally with 2 mg/Kg of 2-(2-Nitro-4-Trifluoromethylbenzoyl)-1,3-Cyclohexanedione. As a control, 12 rats were orally dosed with the dosing vehicle. After 4 hours, animals were each placed in an activity cage for one hour, containing an automatic activity monitoring system with infrared beams to determine activity and mobility.

`O=C1CCCC(O)=C1C(=O)c1ccc(C(F)(F)F)cc1[N+](=O)[O-]` [2-(2-Nitro-4-Trifluoromethylbenzoyl)-1,3-Cyclohexanedione] was tested, and the “dopamine increase compared with the mean of the controls” value ([1]; after 6 hours) was “up to 15%”, the “dopamine turnover increase compared with the mean of the controls” value ([1]; after 6 hours) was “up to 15%” and the plasma tyrosine levels ([1]; after 6 hours) was “elevated”. For the same molecule, the “dopamine increase compared with the mean of the controls” value ([1]; after 24 hours) was “up to 16%”, the “dopamine turnover increase compared with the mean of the controls” value ([1]; after 24 hours) was “up to 27%” and the plasma tyrosine levels ([1]; after 24 hours) was “elevated”. The “dopamine turnover increase in the treated compared with the control group” value [2] was 25%, the “noradrenaline increase compared with the mean of the controls” value ([2]; cortex) was “up to 76%” and the “noradrenaline increase compared with the mean of the controls” value ([2]; hypothalamus) was no more than 21%. The plasma tyrosine levels ([2]; vs vehicle control) was “elevated”, the “active time, decrease compared with the control group” value (rats) was roughly 27% and the “activity counts, decrease compared with the control group” value (rats) was “approximately 43%”. The “centre rearing counts, increase compared with the control group” value (rats) was 63%, the “effect on rearing behaviour” value (rats) was “mild stimulatory effect” and the “mean rearing counts, increase compared with the control group” value (rats) was 91%. For the same molecule, the “mobile time, decrease compared with the control group” value (rats) was roughly 49% and the “rearing time, increase compared with the control group” value (rats) was 79%.
